From ChEMBL document CHEMBL1146941, “Synthesis of pyrazinamide Mannich bases and its antitubercular properties” (2006)
≈ marks a conversion by molar mass, not a printed value.

What follows are compounds tested on Mycobacterium tuberculosis (assay: Antimycobacterial activity against multi drug resistant Mycobacterium tuberculosis).
Type: functional
For `O=C(NCN1CCN(c2ccccc2)CC1)c1cnccn1`, the MIC90 was > 25 µg/mL.
With `COc1ccc(N2CCN(CNC(=O)c3cnccn3)CC2)cc1` the MIC90 was > 25 µg/mL.
`CCn1cc(C(=O)O)c(=O)c2cc(F)c(N3CCN(CNC(=O)c4cnccn4)CC3)c(F)c21` was tested, and the MIC90 was 0.78 µg/mL (≈ 1.65 µM).
`NC(=O)c1cnccn1` [PYRAZINAMIDE] was tested, and the MIC90 was > 25 µg/mL.
In the case of `O=C(NCN1CCN(c2ccc(C(F)(F)F)cc2)CC1)c1cnccn1`, the MIC90 is reported as 1.76 µg/mL (≈ 4.82 µM).
`O=C(NCN1CCN(c2cccc(Cl)c2)CC1)c1cnccn1` showed an MIC90 of 6.25 µg/mL (≈ 18.8 µM).
`O=C(NCN1CCN(c2ccc(F)cc2)CC1)c1cnccn1` was tested, and the MIC90 was 1.76 µg/mL (≈ 5.58 µM).
With `O=C(NCN1CCN(Cc2ccccc2)CC1)c1cnccn1` the MIC90 was > 25 µg/mL.
With `CN1CCN(CNC(=O)c2cnccn2)CC1` the MIC90 was > 25 µg/mL.
Compound `O=C(NCN1CCN(c2ccc(Cl)cc2)CC1)c1cnccn1` has an MIC90 of 12.5 µg/mL (≈ 37.7 µM).
With `O=C(NCN1CCN(c2cc3c(cc2F)c(=O)c(C(=O)O)cn3C2CC2)CC1)c1cnccn1` the MIC90 was 0.78 µg/mL (≈ 1.67 µM).
Compound `CCn1cc(C(=O)O)c(=O)c2cc(F)c(N3CCN(CNC(=O)c4cnccn4)CC3)cc21` has an MIC90 of 0.78 µg/mL (≈ 1.72 µM).
For `O=C(NCN1CCN(c2ncccn2)CC1)c1cnccn1`, the MIC90 was > 25 µg/mL.
For `COc1ccccc1N1CCN(CNC(=O)c2cnccn2)CC1`, the MIC90 was > 25 µg/mL.
`COc1cccc(N2CCN(CNC(=O)c3cnccn3)CC2)c1` was tested, and the MIC90 was > 25 µg/mL.
`O=C(NCN1CCN(c2ccc([N+](=O)[O-])cc2)CC1)c1cnccn1` gave an MIC90 of 6.25 µg/mL (≈ 18.3 µM).
With `O=C(NCN1CCN(c2ccccn2)CC1)c1cnccn1` the MIC90 was > 25 µg/mL.
